*1 amine or outer side, *2 acyl side, *3 side chain or, on linkers, in order; H or OH if unused. Where a SMILES comes first, the peptide text is derived from it. Bridges are numbered along the chain shown (N, C = ends). [ ]: non-standard residue; d: D form. Suberoyl(Gly)2 = O=C(CCCCCCC(=O)NCC(=O)[*:2])NCC(=O)[*:1]; Lys(Thioacetyl) = CC(=S)NCCCC[C@H](N)C(=O)O; Suberoyl = O=C(CCCCCCC(=O)[*:2])[*:1]; Adipoyl = O=C(CCCCC(=O)[*:2])[*:1]; Suc = O=C(CCC(=O)[*:2])[*:1]
Assays:
[1] = biological target: T1, NAD-dependent protein deacetylase sirtuin-1 (Homo sapiens, UniProt Q96EB6); assay: Inhibition of human SIRT1 (133 to 747 amino acid residues) assessed as deacetylation using Z-Lys(Acetyl)-AMC as substrate measured after 4 hrs by fluorescence based microplate reader method in presence of 500 uM beta-NAD+
T1 sequence (Q96EB6 whole entry): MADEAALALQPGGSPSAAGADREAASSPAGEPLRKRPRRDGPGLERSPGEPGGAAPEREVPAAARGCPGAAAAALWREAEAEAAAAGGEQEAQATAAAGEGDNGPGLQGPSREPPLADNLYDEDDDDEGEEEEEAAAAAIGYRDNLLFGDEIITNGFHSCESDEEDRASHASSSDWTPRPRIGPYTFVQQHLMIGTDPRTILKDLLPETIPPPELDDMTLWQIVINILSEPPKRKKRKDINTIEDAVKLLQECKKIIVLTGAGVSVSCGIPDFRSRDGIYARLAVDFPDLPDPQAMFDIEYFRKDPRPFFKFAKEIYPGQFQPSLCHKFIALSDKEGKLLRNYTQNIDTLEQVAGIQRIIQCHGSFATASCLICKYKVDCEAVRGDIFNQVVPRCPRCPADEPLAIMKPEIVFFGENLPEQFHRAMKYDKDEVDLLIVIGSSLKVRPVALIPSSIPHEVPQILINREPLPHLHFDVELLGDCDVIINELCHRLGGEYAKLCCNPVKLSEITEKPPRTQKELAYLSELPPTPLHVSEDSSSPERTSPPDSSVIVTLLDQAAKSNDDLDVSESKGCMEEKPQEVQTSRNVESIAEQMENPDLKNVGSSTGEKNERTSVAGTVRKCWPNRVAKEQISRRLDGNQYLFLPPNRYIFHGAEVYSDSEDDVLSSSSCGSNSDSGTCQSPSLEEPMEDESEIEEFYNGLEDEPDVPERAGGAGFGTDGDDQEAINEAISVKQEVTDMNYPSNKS

[2] = biological target: T2, NAD-dependent protein deacetylase sirtuin-3, mitochondrial (Homo sapiens, UniProt Q9NTG7); assay: Inhibition of human SIRT3 expressed in Escherichia coli BL21 (DE3) assessed as deacetylation using Z-Lys(Acetyl)-AMC as substrate measured after 4 hrs by fluorescence based microplate reader method in presence of 500 uM beta NAD+
T2 sequence (Q9NTG7 whole entry): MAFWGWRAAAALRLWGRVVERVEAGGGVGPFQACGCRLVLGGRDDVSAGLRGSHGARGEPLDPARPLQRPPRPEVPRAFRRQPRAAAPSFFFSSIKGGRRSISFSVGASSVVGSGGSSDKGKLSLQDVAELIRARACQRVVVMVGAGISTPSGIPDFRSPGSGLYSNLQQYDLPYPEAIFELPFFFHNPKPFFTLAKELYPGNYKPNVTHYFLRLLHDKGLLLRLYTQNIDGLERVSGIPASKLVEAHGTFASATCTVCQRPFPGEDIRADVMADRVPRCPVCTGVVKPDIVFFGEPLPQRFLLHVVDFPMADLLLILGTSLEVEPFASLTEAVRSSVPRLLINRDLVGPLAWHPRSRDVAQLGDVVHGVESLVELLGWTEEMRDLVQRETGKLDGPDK

[3] = biological target: T3, NAD-dependent protein deacetylase sirtuin-2 (Homo sapiens, UniProt Q8IXJ6); assay: Inhibition of human SIRT2
T3 sequence (Q8IXJ6 whole entry): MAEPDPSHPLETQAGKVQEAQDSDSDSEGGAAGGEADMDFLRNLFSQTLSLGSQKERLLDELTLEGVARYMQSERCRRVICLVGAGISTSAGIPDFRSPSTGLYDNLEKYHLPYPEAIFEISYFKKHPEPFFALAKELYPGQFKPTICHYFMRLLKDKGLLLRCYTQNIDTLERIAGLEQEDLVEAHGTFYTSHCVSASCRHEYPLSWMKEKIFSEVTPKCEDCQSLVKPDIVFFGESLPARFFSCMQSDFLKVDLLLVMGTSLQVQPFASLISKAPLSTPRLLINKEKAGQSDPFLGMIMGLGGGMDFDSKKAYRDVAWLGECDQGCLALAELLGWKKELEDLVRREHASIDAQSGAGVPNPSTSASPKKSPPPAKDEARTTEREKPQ

[4] = biological target: T2, NAD-dependent protein deacetylase sirtuin-3, mitochondrial; assay: Inhibition of SIRT3 (unknown origin)
[5] = biological target: T1, NAD-dependent protein deacetylase sirtuin-1; assay: Inhibition of SIRT1 (unknown origin)
[6] = biological target: T3, NAD-dependent protein deacetylase sirtuin-2; assay: Inhibition of recombinant His6 tagged human SIRT2 using 0.39 mM H2N-HK-[N(epsilon)-acetyl-lysine]-LM-COOH as substrate measured after 12 mins HPLC analysis in presence of 0.5 mM beta-NAD+
[7] = biological target: T2, NAD-dependent protein deacetylase sirtuin-3, mitochondrial; assay: Inhibition of recombinant His6 tagged human SIRT3 using 0.105 mM H2N-HK-[N(epsilon)-acetyl-lysine]-LM-COOH as substrate measured after 10 mins HPLC analysis in presence of 3.5 mM beta-NAD+
[8] = biological target: T1, NAD-dependent protein deacetylase sirtuin-1; assay: Inhibition of recombinant GST-tagged human SIRT1 using 0.3 mM H2N-HK-[N(epsilon)-acetyl-lysine]-LM-COOH as substrate measured after 10 mins HPLC analysis in presence of 0.5 mM beta-NAD+

Compound | IC50 [6] [nM] | IC50 [7] [nM] | IC50 [8] [nM] | also measured
Cc1cc(C)nc(SCC(=O)Nc2ncc(Cc3cccc4ccccc34)s2)n1 | – | – | – | IC50 [1]: > 140000 nM; IC50 [2]: > 140000 nM
CC[C@H](C)[C@@H]1NC(=O)[C@H](CCCNC(=N)N)NC(=O)[C@H](Cc2ccccc2)NC(=O)[C@H](CC(N)=O)NC(=O)[C@@H](CO)NC(=O)[C@H](Cc2ccc(O)cc2)NC(=O)CSC[C@@H](C(N)=O)NC(=O)[C@H](CO)NC(=O)[C@H](CO)NC(=O)[C@H](CC(N)=O)NC(=O)[C@H](CO)NC(=O)[C@H](Cc2ccc(O)cc2)NC(=O)[C@H](CCCNC(=N)N)NC(=O)[C@H](CCCCNC(=O)C(F)(F)F)NC1=O | – | – | – | IC50 [3]: 3.2 nM; IC50 [4]: 480 nM; IC50 [5]: 47 nM
CSCC[C@H](NC(=O)[C@@H]1CCCCNC(=O)CNC(=O)CCC(=O)NCC(=O)NCCCC[C@H](NC(C)=O)C(=O)N[C@@H](CCCCN)C(=O)N[C@@H](CCCCNC(C)=S)C(=O)N1)C(N)=O | 58.9 | 103 | 56.8 | –
CSCC[C@H](NC(=O)[C@@H]1CCCCNC(=O)CCCCC(=O)NCCCC[C@H](NC(C)=O)C(=O)N[C@@H](CCCCN)C(=O)N[C@@H](CCCCNC(C)=S)C(=O)N1)C(N)=O (Ac-KK[Lys(Thioacetyl)]KM-NH2; linker 1-4 via Adipoyl) | 134 | – | 63.5 | –
CSCC[C@H](NC(=O)[C@@H]1CCCCNC(=O)CCC(=O)NCCCC[C@H](NC(C)=O)C(=O)N[C@@H](CCCCN)C(=O)N[C@@H](CCCCNC(C)=S)C(=O)N1)C(N)=O (Ac-KK[Lys(Thioacetyl)]KM-NH2; linker 1-4 via Suc) | 10.1 | – | 75.2 | –

Second part, led by results:

IC50 [6] [nM] | IC50 [7] [nM] | IC50 [8] [nM] | Compound | also measured
53.1 | 52.5 | 38.7 | CSCC[C@H](NC(=O)[C@@H]1CCCCNC(=O)CNC(=O)CCCCC(=O)NCC(=O)NCCCC[C@H](NC(C)=O)C(=O)N[C@@H](CCCCN)C(=O)N[C@@H](CCCCNC(C)=S)C(=O)N1)C(N)=O | –
332 | – | 165 | CSCC[C@H](NC(=O)[C@H](CC(C)C)NC(=O)[C@H](CCCCNC(C)=S)NC(=O)[C@H](CCCCN)NC(=O)[C@H](Cc1c[nH]cn1)NC(C)=O)C(N)=O (Ac-HK[Lys(Thioacetyl)]LM-NH2) | –
144 | 42.9 | 2.3 | CSCC[C@H](NC(=O)[C@@H]1CCCCNC(=O)CNC(=O)CCCCCCC(=O)NCC(=O)NCCCC[C@H](NC(C)=O)C(=O)N[C@@H](CCCCN)C(=O)N[C@@H](CCCCNC(C)=S)C(=O)N1)C(N)=O (Ac-KK[Lys(Thioacetyl)]KM-NH2; linker 1-4 via Suberoyl(Gly)2) | –
404 | – | 37.1 | CSCC[C@H](NC(=O)[C@@H]1CCCCNC(=O)CCCCCCC(=O)NCCCC[C@H](NC(C)=O)C(=O)N[C@@H](CCCCN)C(=O)N[C@@H](CCCCNC(C)=S)C(=O)N1)C(N)=O (Ac-KK[Lys(Thioacetyl)]KM-NH2; linker 1-4 via Suberoyl) | –
